Assay [1] concerns the target T1, human indoleamine 2,3-dioxygenase 1 (hIDO1) (Homo sapiens, UniProt P14902).
T1 construct: up-regulate the expression of endogenous IDO1 under the induction of human IFN-γ; endogenous in cells; host or cells: HeLa cells stimulated with human IFN-γ
The assay is described as follows: Inhibitory activity test at cellular level: IFN-γ-induced HeLa cells, kynurenine colour reaction. Format: cell-based. The following applies: 50 ng/ml human IFN-γ, 200 μM L-tryptophan, 48 hours, each test compound 100 nM, read-out: hIDO1-cell base inhibition rate (%). An excerpt:
The subject of this assay was to comprehensively evaluate different compounds on their enzymatic inhibitory activity in vitro and on cell models against human indoleamine 2,3-dioxygenase 1 (hIDO1).
In the present application, the inventors used Hela cells expressing IDO1 induced by IFN-γ as a model, to test the IDO1 inhibitory activity of the compounds at the cellular level.
HeLa cells are human cervical cancer cell lines, which can up-regulate the expression of endogenous IDO1 under the induction of human IFN-γ. By adding the substrate L-tryptophan to cell culture medium, the enzymatic catalysis product kynurenine in cell supernatant was detected. In this experiment, the cultured Hela cells were used and co-incubated with different concentrations of test compounds under stimulation of human IFN-γ for a specified period of time, and the color reaction method of enzyme product and p-dimethylaminobenzaldehyde was used to detect the effect on IDO enzyme activity of cells treated by the test compounds.
(1) Hela cells were inoculated into 96-well culture plates at an appropriate concentration (about 20,000 cells/well). […] The cells were continuously cultured for 48 hours before detection.
(2) 200 μL of the supernatant in the culture well was pipetted out, added with 40 μL of the pre-prepared 30% (w/v) trichloroacetic acid solution, and reacted at 65° C. for 20 minutes, and then centrifuged at 12000 rpm for 15 minutes.
(3) 100 μL of the supernatant after centrifugation was pipetted out, added into a 96-well flat bottom plate, then added with an equal volume of 2% p-dimethylaminobenzaldehyde in glacial acetic acid and mixed well, and stood at room temperature for 10 minutes.
(4) microplate reader (ELX800NB) was used to detect the absorbance value of each well, and the detection wavelength was 492 nm.
In addition, after the cell enzyme activity inhibition rates of test compounds with different concentration gradients were separately calculated, their cell enzyme activity half inhibition concentrations (EC50) were calculated by using EC50 calculator.
According to the above-mentioned experimental method, the compounds of the present application were subjected to IDO1 enzymatic evaluation at cytological level (the concentration of each test compound was all 100 nM).
According to the above-mentioned experimental method, the compound of the present application was subjected to hIDO1-cell base EC50 detection.

The target of another assay is T2, IDO in HeLa cell (Homo sapiens, UniProt P14902).
T2 construct: 50 ng/ml cytokine human IFN-γ and drugs with different concentrations; endogenous in cells; host or cells: HeLa cells stimulated with human IFN-γ
The assay can be described thus: Inhibition of IDO enzyme activity in HeLa cells by Chidamide in combination with IDO inhibitor. Format: cell-based. The following applies: Example 92, Table 6: chidamide and Example 87 alone and in combination, IFN-γ, 48 hours, FIG. 4. The procedure: HeLa cells were digested by trypsin, collected and counted, then inoculated in a 96-well cell culture plate at 2×10^4 cells per well and cultured at 5% CO2 and 37° C. After the cells were inoculated overnight, the medium was replaced with 200 μM L-tryptophan phenol red-free DMEM medium, and 50 ng/ml cytokine human IFN-γ and drugs with different concentrations (administered according to the group and final concentration shown in FIG. 1) were added simultaneously, the vehicle control (DMSO) and cytokine-free and L-tryptophan negative control wells were set at the same time, and triplicate wells were set. After 48 hours of drug treatment, 200 μL of the supernatant from culture well was pipetted out, added with 40 μL of pre-prepared 30% (w/v) trichloroacetic acid solution, reacted at 65° C. for 20 minutes, and then centrifuged at 12000 rpm for 15 minutes. 100 μL of the supernatant was pipetted out and added into a 96-well flat bottom plate, then equal volume of 2% p-dimethylaminobenzaldehyde in glacial acetic acid was added and mixed well, and stood at room temperature for 10 minutes. The absorbance value of each well at wavelength of 492 nm was read with microplate reader (ELX800NB). After subtracting the cell-free medium OD492-BLK as a blank control from the reading of each well, the OD492-T of each dosing well with subtraction of the detection background and the […] of drug-free positive control well were obtained.
The relative enzyme activity inhibition rate against IDO of each dosing well cell was calculated according to the following formula: enzyme activity inhibition rate against IDO=(OD492−T0−OD492−T)/OD492−T0×100%

The target of a further assay is T3, hERG potassium channel (Homo sapiens, UniProt Q12809).
T3 construct: expressed in transfected cells
The assay is described as follows: hERG inhibitory activity assay (patch clamp method), HEK293 cells stably expressing hERG. It is filed as cell-based. Particulars: whole-cell patch clamp, HEK293, 0.3-30 μM, room temperature; read-out: hERG inhibition EC50 value. An excerpt: Non-cardiac drugs may cause the prolongation of myocardial action potential duration by inhibiting the hERG (IKr) channel, increasing the possibility of life-threatening torsade de pointes (TdP) ventricular arrhythmia. In this experiment, HEK293 cell line without endogenous IKr current was used as host cell (this cell line was widely used in the detection of hERG) to evaluate the cardiotoxicity of Example 85 in patent CN108203438A and Example 87 of the present application.
(1) HEK293 cell line stably expressing hERG potassium channel was cultured in DMEM medium containing 10% fetal bovine serum and 0.8 mg/mL G418 under the condition of 37° C. and 5% CO2. […]
A capillary glass tube was drawn into a recording electrode with a microelectrode puller. […] Then, slow capacitance compensation was performed, and the membrane capacitance and series resistance were recorded. […]
When the hERG current of the whole-cell recording was stabilized, the drug was administered. […] The current detected for each cell in the compound-free extracellular fluid was used as its own control group. […]
[formula] and then the inhibition rate corresponding to each concentration was calculated
[formula] For each concentration, mean number and standard error were calculated, and the following equation was used to calculate the half inhibitory concentration of each compound: […]

The subject of a further assay is CT-26 tumor. The assay can be described thus: Efficacy experiment on Balb/c mouse CT-26 tumor model. Format: in vivo. The following applies: Example 96, Table 10: chidamide and Example 87 alone and in combination; method similar to Example 93.

T3 sequence (Q12809 whole entry): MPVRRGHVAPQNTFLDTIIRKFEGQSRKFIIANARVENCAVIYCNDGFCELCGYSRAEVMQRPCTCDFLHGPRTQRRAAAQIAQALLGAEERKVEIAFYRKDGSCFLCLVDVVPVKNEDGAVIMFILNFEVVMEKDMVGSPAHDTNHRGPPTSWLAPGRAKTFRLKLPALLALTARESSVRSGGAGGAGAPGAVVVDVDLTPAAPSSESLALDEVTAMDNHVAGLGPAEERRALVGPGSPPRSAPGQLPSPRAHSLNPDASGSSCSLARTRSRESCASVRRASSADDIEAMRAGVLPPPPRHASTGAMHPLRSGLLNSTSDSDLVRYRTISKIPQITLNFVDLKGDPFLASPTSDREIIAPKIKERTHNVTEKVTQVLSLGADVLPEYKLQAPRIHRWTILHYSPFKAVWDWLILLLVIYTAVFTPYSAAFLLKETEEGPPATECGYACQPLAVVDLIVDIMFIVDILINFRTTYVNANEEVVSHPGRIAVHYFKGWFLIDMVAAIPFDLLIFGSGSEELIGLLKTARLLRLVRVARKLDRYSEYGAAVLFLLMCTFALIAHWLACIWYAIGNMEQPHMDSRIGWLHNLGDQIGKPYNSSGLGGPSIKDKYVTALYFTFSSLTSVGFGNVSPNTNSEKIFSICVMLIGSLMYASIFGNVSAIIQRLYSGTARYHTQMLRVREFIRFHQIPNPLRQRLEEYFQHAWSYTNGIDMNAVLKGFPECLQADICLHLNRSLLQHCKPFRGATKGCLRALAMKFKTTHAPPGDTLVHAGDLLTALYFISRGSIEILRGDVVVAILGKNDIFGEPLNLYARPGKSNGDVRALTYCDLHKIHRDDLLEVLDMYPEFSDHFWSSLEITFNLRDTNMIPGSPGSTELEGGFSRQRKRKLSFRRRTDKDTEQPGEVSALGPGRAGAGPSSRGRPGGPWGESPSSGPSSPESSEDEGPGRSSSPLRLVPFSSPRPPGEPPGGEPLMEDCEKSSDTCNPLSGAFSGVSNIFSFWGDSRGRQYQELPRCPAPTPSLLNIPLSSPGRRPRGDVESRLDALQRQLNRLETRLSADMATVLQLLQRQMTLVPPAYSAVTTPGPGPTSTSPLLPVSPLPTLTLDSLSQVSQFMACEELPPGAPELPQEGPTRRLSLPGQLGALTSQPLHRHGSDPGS
T2 sequence (P14902 whole entry): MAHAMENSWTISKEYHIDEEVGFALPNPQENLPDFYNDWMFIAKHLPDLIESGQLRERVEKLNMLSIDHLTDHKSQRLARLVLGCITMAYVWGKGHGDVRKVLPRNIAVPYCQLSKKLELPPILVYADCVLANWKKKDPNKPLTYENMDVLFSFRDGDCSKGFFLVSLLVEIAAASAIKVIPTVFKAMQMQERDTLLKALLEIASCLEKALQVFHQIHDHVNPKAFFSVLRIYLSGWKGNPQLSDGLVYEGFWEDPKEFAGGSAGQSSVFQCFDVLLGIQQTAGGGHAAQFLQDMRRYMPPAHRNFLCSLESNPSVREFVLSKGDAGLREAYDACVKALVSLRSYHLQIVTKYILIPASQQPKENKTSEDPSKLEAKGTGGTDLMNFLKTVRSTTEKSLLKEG
T1 sequence (P14902 whole entry): as above

On to `O=C(CNc1ccc2c(c1)OCO2)N1CCC(C(O)CC2c3c(F)cccc3-c3cncn32)CC1` (stereo not shown) [Example 87, 2-(benzo[d][1,3]dioxol-5-yl-amino)-1-(4-(2-(6-fluoro-5H-imidazo[5,1-a)isoindol-5-yl)-1-hydroxyethyl)piperidin-1-yl)ethyl-1-one], for which the inhibition (in general, how much of the control response was suppressed) at 0.1 µM in assay [1] is 23%. In addition, the “Average inhibition rate (%) against IDO” value at IDO in HeLa cell amounted to 20%. Moreover, the EC50 – broadly, the concentration giving half of the maximal effect – at hERG potassium channel came to 4.6 µM. In addition, the “Relative tumor inhibition rate (%)” value with CT-26 tumor is 45%.

Values taken from patent US12551478B2, “Quinoline derivative having indoleamine-2,3-dioxygenase inhibitory activity” (SHENZHEN CHIPSCREEN BIOSCIENCES CO., LTD., priority 2018, dated 2026).
